According to patent publication US8889902B2, “Acetylsalicylic acid salts” (priority 2009, dated 2014):

Tests used:
[1] = tested on: FeCl3 induced carotid artery thrombosis; test: FeCl3 induced carotid artery thrombosis, time till occlusion; format: in vivo, Wistar rats; settings: for Time till occlusion, %: control = 100
Excerpt: We chose an experimental thrombosis model based on rat arterial thrombosis induced by FeCl3 (Kurz K et al, Thromb Res 1990, 60:269-280. Wang X, Xu L, Thromb Res 2005,115:95-100). Tissue damage initiated by iron-mediated chemical oxidation predisposes the injured area to platelet adherence and aggregation followed by coagulation activation and fibrin deposition. Male Wistar rats with mass 350-420 g were used in experiments. Animals were kept in groups of 7-8 in adequate cages in climatized room at 22±1° C., relative humidity 60±5% and 12/12-hour light/darkness cycle with free access to feed and water. All experiments were carried out in accordance with the European Community Council's Directive of 24 Nov. 1986 (86/609/EEC) relative to experimental animal care. All efforts were made to minimize animal suffering and to reduce the number of animals used. Rats were randomly divided into various experimental groups, each consisting of not less than seven animals. The vehicle or test compound MD (25 mg/kg), NA (25 mg/kg), MASA (10 mg/kg), ASA (5 mg/kg) and combination MD+NA (25+25 mg/kg), MASA+NA (10+25 mg/kg) and ASA+NA (5+25 mg/kg) was administered by oral route 2 h before the initiation of thrombosis. Parallel experiments were conducted to compare the effects of a single dose of test substance (given 2 h before the initiation of thrombosis) and repeated doses (once daily for 3 days). […] Rats were anaesthetized with pentobarbital sodium (50 mg/kg, i.p. and 10 mg/kg/h) and were placed on a heat controlled operating table throughout the experiment to maintain a body temperature of 37° C. One of the carotid arteries was exposed by cervical incision, separated from the adherent tissue, vagus nerve, and a flow probe (electromagnetic blood flow meter MFV 1200, Nicon Kohden, Japan) was placed on the exposed segment of common carotid artery to record the blood flow. After a stabilization period of 15 min, thrombosis was induced by topically applying (in contact with the adventitial surface of vessel) two pieces (2×1 mm) of Whatman filter paper, soaked in 15% solution of FeCl3. Thrombosis time of carotid artery was recorded as time taken for the complete cessation of the blood flow and has been reported as time till occlusion (TTO).

tail bleeding = test: Tail bleeding time during thrombosis experiment; format: in vivo, rats; settings: for Tail bleeding time, %: control = 100
Procedure: Additionally during the thrombosis experiment rat tail bleeding time was measured. The tail was transected 5 mm from the tip with scalpel and the tail was immediately immersed into 37° C. warm isotonic saline until termination of bleeding was noted. Termination of bleeding was defined as the time of complete stop of bleeding with no recurrence of bleeding within the next 30 s.

platelet aggregation [2] = test: Platelet aggregation ex vivo after 3 days treatment; format: in vivo, rats; settings: 5 mg/kg/d p.o. 3 days
Procedure: Platelet aggregation was studied using whole blood impedance aggregometry on Multiplate (Multiple Platelet Function Analyzer, Dynabyte Medical, Germany) (Toth O et al, Thromb Haemost 2006; 96:781-788. […] Blood samples for in vitro experiment were collected from healthy donor B. […] In the ex vivo experiment blood was collected into plastic tubes covered with hirudin (Dynabyte Medical, Germany) from narcotized rats that were treated for 3 previous days with test substances p.o. The measurements were performed according to modified Dynabyte Medical protocol. […] After 5 min incubation and stirring at 37° C., measurements were initiated by adding of the appropriate agonist solution (sourced from Dynabyte Medical, Germany): After the thrombosis experiment the narcotized animals who received test substances for 3 days were used for platelet aggregation test ex vivo. […] Blood samples were used for measurement between 30 min and 4 h after collection. The measurements were performed according to modified Dynabyte Medical protocol (see above under Platelet aggregation).

platelet aggregation [3] = test: Platelet aggregation in vitro, whole blood impedance aggregometry (Multiplate); format: cell-based, healthy donor; settings: 3 × 10^−4
Procedure: Platelet aggregation was studied using whole blood impedance aggregometry on Multiplate (Multiple Platelet Function Analyzer, Dynabyte Medical, Germany) (Toth O et al, Thromb Haemost 2006; 96:781-788. […] Blood samples for in vitro experiment were collected from healthy donor B. […] In the ex vivo experiment blood was collected into plastic tubes covered with hirudin (Dynabyte Medical, Germany) from narcotized rats that were treated for 3 previous days with test substances p.o. The measurements were performed according to modified Dynabyte Medical protocol. […] After 5 min incubation and stirring at 37° C., measurements were initiated by adding of the appropriate agonist solution (sourced from Dynabyte Medical, Germany): 1) adenosine diphosphate (ADP)-ADP-Test. ADP stimulates platelet activation by the ADP receptors (P2Y 12 and other). […] 3) ADP HS test (prostaglandin E1 in combination with ADP). […] Aggregation curves were recorded for 6 min. and analyzed using Dynabyte Medical software. We calculated the following parameters of platelet aggregation: […] It is affected by the total height of the aggregation curve as well as by its slope and is best suited to express the overall platelet activity.

[4] = Stability at ambient conditions
rat ear skin temperature = test: Ear skin temperature rise caused by NA, s.c. administration; format: in vivo, Wistar rats; settings: LA 0.3 mg/kg s.c. alone
Procedure: Male Wistar rats (280-330 g) were used. Animals were held in groups of 6 in climatized rooms at 22±1° C., relative humidity 60±5%, and 12/12-hour light/dark cycle with free access to drinking water and feed (R3—Lactamin AB, Sweden). For registration of changes in skin temperature of intact rats contactless temperature recording method was used (Papaliodis D et al, Br J Pharmacol 2008; 153:1382-1387). Temperature measurements were performed with a hand-held infrared thermometer (Model Proscan 510, TFA-Dostman). Animals were habituated to handling and to the infrared probe for 3 days before use. Temperature readings from the dorsal side of each ear were recorded without anaesthesia at beginning and during experiment. The ear temperature was measured every 5 min. for a period of up to 60 min. The animals were returned to their cages between measurements. NA, MD and MASA were dissolved in saline and pH was corrected immediately before usage. LA (MK 0524, Cayman Chemicals) was first dissolved in DMSO and then freshly diluted with 0.9% NaCl, on each day of the experiment. The rate of NA and LA combination was based on Summary of Product Characteristics for Tredaptive™ (nicotinic acid/laropiprant) 1000 mg/20 mg modified-release tablets.
The influence of LA, MD or MASA alone on skin temperature was checked. Each investigated compound was introduced s.c. simultaneously with NA as LA+NA [0] or 30 min in advance to NA as LA+NA [30].

[5] = 5 mg/kg/d p.o., repeated, 3 days

**Q.** Which Time till occlusion ([1]; 5 mg/kg p.o., single dose 2 h before) does the source give for `COC(=O)[C@H](c1ccccc1Cl)N1CCc2sccc2C1` [CL, clopidogrel] here?
**A.** The Time till occlusion was 31.7 ± 2.40^1 min.

**Q.** What about the “Time till occlusion, %” value ([1]; 5 mg/kg p.o., single dose) of the same compound?
**A.** Its value is 130%.

**Q.** And the Time till occlusion [1, 5]?
**A.** Its Time till occlusion is 49.1 ± 7.75^1 min.

**Q.** And the “Time till occlusion, %” value [1, 5]?
**A.** The value was 194%.

**Q.** And the Tail bleeding time (tail bleeding; 5 mg/kg p.o., single dose)?
**A.** Its Tail bleeding time is 11.9 ± 3.62 min.

**Q.** What about the “Tail bleeding time, %” value (tail bleeding; 5 mg/kg p.o., single dose) of the same compound?
**A.** Its value is 134%.

**Q.** And the Tail bleeding time (tail bleeding; [5])?
**A.** The Tail bleeding time was 18.3 ± 3.78^1 min.

**Q.** And the “Tail bleeding time, %” value (tail bleeding; [5])?
**A.** Its value is 213%.

**Q.** What about the AUC (platelet aggregation [2]; AA induced) of the same compound?
**A.** The AUC was 905 ± 53.5^& AU*min.

**Q.** And the Amax (platelet aggregation [2]; AA induced)?
**A.** Its Amax is 160.7 ± 13.5^&@ AU.

**Q.** What about the AUC (platelet aggregation [2]; ADP induced) of the same compound?
**A.** Its AUC is 423 ± 39.4^2& AU*min.

**Q.** And the Amax (platelet aggregation [2]; ADP induced)?
**A.** The Amax was 68.2 ± 15.1^2& AU.

**Q.** What about the AUC (platelet aggregation [2]; PGE1 + ADP induced) of the same compound?
**A.** The AUC was 259 ± 49.3^2& AU*min.

**Q.** And the Amax (platelet aggregation [2]; PGE1 + ADP induced)?
**A.** Its Amax is 49.7 ± 9.9^3&& AU.

**Q.** Which results are given for `OCCN(CCO)c1nc(N2CCCCC2)c2nc(N(CCO)CCO)nc(N3CCCCC3)c2n1` [DI, dipyridamole]?
**A.** AUC (platelet aggregation [3]; AA induced): 1104 ± 45.5^&@@ AU*min; Amax (platelet aggregation [3]; AA induced): 173.9 ± 5.2^&@@ AU; AUC (platelet aggregation [3]; ADP induced): 665 ± 44.1^2& AU*min; Amax (platelet aggregation [3]; ADP induced): 111.1 ± 6.9^2& AU

**Q.** For `CC(=O)Oc1ccccc1C(=O)[O-].C[N+](C)(C)CCCC(=O)O` [Example 1, 4-trimethylammoniobutanoate Acetylsalicylic Acid Addition Salt], which “solubility in water (in words)” value (Solubility in water) is on record?
**A.** Its value is “water soluble”.

**Q.** And the “stability (in words)” value [4]?
**A.** Its value is “stable at ambient conditions”.

**Q.** With `CS(=O)(=O)c1cc(F)cc2c3c(n(Cc4ccc(Cl)cc4)c12)[C@@H](CC(=O)O)CC3` [LA, laropiprant] as the compound, how does the Maximum temperature (rat ear skin temperature) read?
**A.** Its Maximum temperature is 29.5 ± 0.35^$$$ ° C.
